Measurements as given in ChEMBL document CHEMBL1137480, “Synthesis and structure-activity relationship of 7-(substituted)-aminomethyl-4-quinolone-3-carboxylic acid derivatives” (2007).
Converted amounts (≈) assume the structure as drawn.

What was measured:
Type in all cases: functional
Shigella boydii = experiment: Antibacterial activity against Shigella boydii 51313 after 24 hrs by agar dilution method
Streptococcus pneumoniae = experiment: Antibacterial activity against Streptococcus pneumoniae 31002 after 24 hrs by agar dilution method
Klebsiella pneumoniae = experiment: Antibacterial activity against Klebsiella pneumoniae 46101 after 24 hrs by agar dilution method
[1] = tested on: Staphylococcus epidermidis; experiment: Antibacterial activity against Staphylococcus epidermidis 26069 after 24 hrs by agar dilution method
Staphylococcus aureus = experiment: Antibacterial activity against Staphylococcus aureus 26003 after 24 hrs by agar dilution method
Salmonella = experiment: Antibacterial activity against […] 48107 after 24 hrs by agar dilution method

Structure (SMILES) | MIC (Shigella boydii) | MIC (Streptococcus pneumoniae) | MIC (Klebsiella pneumoniae) | MIC [1] | MIC (Staphylococcus aureus) | MIC (Salmonella)
CC1COc2c(CN3CCCC3)c(F)cc3c(=O)c(C(=O)O)cn1c23 (configuration not stated) | 0.39 µg/mL (≈ 1.13 µM) | 3.13 µg/mL (≈ 9.04 µM) | 0.195 µg/mL (≈ 0.563 µM) | > 6.25 µg/mL | > 6.25 µg/mL | 0.39 µg/mL (≈ 1.13 µM)
C[C@H]1COc2c(CN3CCNCC3)c(F)cc3c(=O)c(C(=O)O)cn1c23 | > 6.25 µg/mL | > 6.25 µg/mL | 3.13 µg/mL (≈ 8.66 µM) | > 6.25 µg/mL | > 6.25 µg/mL | > 6.25 µg/mL
CNCc1c(F)cc2c(=O)c(C(=O)O)cn3c2c1OCC3C (configuration not stated) | 0.098 µg/mL (≈ 0.32 µM) | 3.13 µg/mL (≈ 10.2 µM) | 0.098 µg/mL (≈ 0.32 µM) | > 6.25 µg/mL | 3.13 µg/mL (≈ 10.2 µM) | ≤ 0.049 µg/mL
C[C@H]1COc2c(CNC3CC3)c(F)cc3c(=O)c(C(=O)O)cn1c23 | 0.049 µg/mL (≈ 0.147 µM) | 0.39 µg/mL (≈ 1.17 µM) | 0.049 µg/mL (≈ 0.147 µM) | > 6.25 µg/mL | 3.13 µg/mL (≈ 9.42 µM) | 0.049 µg/mL (≈ 0.147 µM)
CC(C)NCc1c(F)cc2c(=O)c(C(=O)O)cn3c2c1OC[C@@H]3C | 0.39 µg/mL (≈ 1.17 µM) | 3.13 µg/mL (≈ 9.36 µM) | 0.195 µg/mL (≈ 0.583 µM) | > 6.25 µg/mL | > 6.25 µg/mL | 0.39 µg/mL (≈ 1.17 µM)
CC1COc2c(CN3CCCCC3)c(F)cc3c(=O)c(C(=O)O)cn1c23 (configuration not stated) | 0.098 µg/mL (≈ 0.272 µM) | 3.13 µg/mL (≈ 8.69 µM) | 0.39 µg/mL (≈ 1.08 µM) | > 6.25 µg/mL | > 6.25 µg/mL | 0.78 µg/mL (≈ 2.16 µM)
C[C@H]1COc2c(C3(N)CC3)c(F)cc3c(=O)c(C(=O)O)cn1c23 [PAZUFLOXACIN] | 0.049 µg/mL (≈ 0.154 µM) | 0.049 µg/mL (≈ 0.154 µM) | 0.049 µg/mL (≈ 0.154 µM) | 0.39 µg/mL (≈ 1.23 µM) | 0.195 µg/mL (≈ 0.613 µM) | 0.049 µg/mL (≈ 0.154 µM)
C[C@H]1COc2c(CN3CCCCC3)c(F)cc3c(=O)c(C(=O)O)cn1c23 | 0.78 µg/mL (≈ 2.16 µM) | 1.56 µg/mL (≈ 4.33 µM) | 0.195 µg/mL (≈ 0.541 µM) | > 6.25 µg/mL | > 6.25 µg/mL | 0.39 µg/mL (≈ 1.08 µM)
C[C@H]1COc2c(N3CCN(C)CC3)c(F)cc3c(=O)c(C(=O)O)cn1c23.C[C@H]1COc2c(N3CCN(C)CC3)c(F)cc3c(=O)c(C(=O)O)cn1c23.O [LEVOFLOXACIN] | 0.098 µg/mL | 0.195 µg/mL | 0.098 µg/mL | 0.78 µg/mL | 0.78 µg/mL | 0.098 µg/mL

Now from value to compound:

MIC (Shigella boydii) | MIC (Streptococcus pneumoniae) | MIC (Klebsiella pneumoniae) | MIC [1] | MIC (Staphylococcus aureus) | MIC (Salmonella) | Structure (SMILES)
1.56 µg/mL (≈ 3.9 µM) | 0.39 µg/mL (≈ 0.974 µM) | 1.56 µg/mL (≈ 3.9 µM) | 3.13 µg/mL (≈ 7.82 µM) | 3.13 µg/mL (≈ 7.82 µM) | 1.56 µg/mL (≈ 3.9 µM) | C[C@H]1COc2c(CN(C)c3ccc(F)cc3)c(F)cc3c(=O)c(C(=O)O)cn1c23
0.39 µg/mL (≈ 1.26 µM) | 3.13 µg/mL (≈ 10.1 µM) | 0.195 µg/mL (≈ 0.628 µM) | > 6.25 µg/mL | > 6.25 µg/mL | 0.39 µg/mL (≈ 1.26 µM) | CCNCc1c(F)cc2c(=O)c(C(=O)O)cn(CC)c2c1F
0.39 µg/mL (≈ 1.32 µM) | 3.13 µg/mL (≈ 10.6 µM) | 0.195 µg/mL (≈ 0.658 µM) | > 6.25 µg/mL | > 6.25 µg/mL | 0.39 µg/mL (≈ 1.32 µM) | CCn1cc(C(=O)O)c(=O)c2cc(F)c(CNC)c(F)c21
0.78 µg/mL (≈ 2.15 µM) | 6.25 µg/mL (≈ 17.2 µM) | 0.195 µg/mL (≈ 0.537 µM) | 6.25 µg/mL (≈ 17.2 µM) | 6.25 µg/mL (≈ 17.2 µM) | 0.195 µg/mL (≈ 0.537 µM) | O=C(O)c1cn(C2CC2)c2c(F)c(CN3CCNCC3)c(F)cc2c1=O
3.13 µg/mL (≈ 7.86 µM) | 3.13 µg/mL (≈ 7.86 µM) | 6.25 µg/mL (≈ 15.7 µM) | 6.25 µg/mL (≈ 15.7 µM) | 3.13 µg/mL (≈ 7.86 µM) | 3.13 µg/mL (≈ 7.86 µM) | CCN(Cc1c(F)cc2c(=O)c(C(=O)O)cn(C3CC3)c2c1F)c1ccccc1
0.78 µg/mL (≈ 2.02 µM) | 0.049 µg/mL (≈ 0.127 µM) | 0.78 µg/mL (≈ 2.02 µM) | 0.78 µg/mL (≈ 2.02 µM) | 0.78 µg/mL (≈ 2.02 µM) | 0.78 µg/mL (≈ 2.02 µM) | C[C@H]1COc2c(CNc3ccc(F)cc3)c(F)cc3c(=O)c(C(=O)O)cn1c23
0.195 µg/mL (≈ 0.484 µM) | ≤ 0.049 µg/mL | 0.195 µg/mL (≈ 0.484 µM) | 0.098 µg/mL (≈ 0.243 µM) | 0.098 µg/mL (≈ 0.243 µM) | 0.098 µg/mL (≈ 0.243 µM) | C[C@H]1COc2c(CNc3ccc(Cl)cc3)c(F)cc3c(=O)c(C(=O)O)cn1c23
0.78 µg/mL (≈ 2.07 µM) | 1.56 µg/mL (≈ 4.14 µM) | 0.195 µg/mL (≈ 0.518 µM) | 6.25 µg/mL (≈ 16.6 µM) | > 6.25 µg/mL | 0.195 µg/mL (≈ 0.518 µM) | O=C(O)c1cn(C2CC2)c2c(F)c(CNC3CCCCC3)c(F)cc2c1=O
0.195 µg/mL (≈ 0.58 µM) | 3.13 µg/mL (≈ 9.31 µM) | 0.39 µg/mL (≈ 1.16 µM) | > 6.25 µg/mL | > 6.25 µg/mL | 0.098 µg/mL (≈ 0.291 µM) | CCCNCc1c(F)cc2c(=O)c(C(=O)O)cn(C3CC3)c2c1F
0.195 µg/mL (≈ 0.502 µM) | 0.049 µg/mL (≈ 0.126 µM) | 0.78 µg/mL (≈ 2.01 µM) | 1.56 µg/mL (≈ 4.02 µM) | 0.78 µg/mL (≈ 2.01 µM) | 0.39 µg/mL (≈ 1 µM) | O=C(O)c1cn(C2CC2)c2c(F)c(CNc3ccc(F)cc3)c(F)cc2c1=O
1.56 µg/mL (≈ 3.92 µM) | 0.098 µg/mL (≈ 0.246 µM) | 1.56 µg/mL (≈ 3.92 µM) | 0.78 µg/mL (≈ 1.96 µM) | 0.39 µg/mL (≈ 0.979 µM) | 1.56 µg/mL (≈ 3.92 µM) | Cc1ccc(NCc2c(F)cc3c(=O)c(C(=O)O)cn(C4CC4)c3c2F)cc1C
0.39 µg/mL (≈ 1.01 µM) | 0.049 µg/mL (≈ 0.127 µM) | 1.56 µg/mL (≈ 4.06 µM) | 1.56 µg/mL (≈ 4.06 µM) | 0.39 µg/mL (≈ 1.01 µM) | 0.78 µg/mL (≈ 2.03 µM) | Cc1ccc(NCc2c(F)cc3c(=O)c(C(=O)O)cn(C4CC4)c3c2F)cc1
1.56 µg/mL (≈ 3.85 µM) | ≤ 0.049 µg/mL | 1.56 µg/mL (≈ 3.85 µM) | 1.56 µg/mL (≈ 3.85 µM) | 0.39 µg/mL (≈ 0.963 µM) | 1.56 µg/mL (≈ 3.85 µM) | O=C(O)c1cn(C2CC2)c2c(F)c(CNc3ccc(Cl)cc3)c(F)cc2c1=O
